Assay results as given in the supplement of paper PMC13380429.

Legend:
Conditions in all cases: 72 h
Caco-2 [1] = assay: cell viability relative to DMSO; higher = less toxic
Calu-3 [2] = assay: as above
HepG2 [3] = assay: as above
U2OS [4] = assay: as above
Vero E6 [5] = assay: as above
Calu-3 [6] = assay: relative viability EC50 (midpoint between 100% and the lowest measured viability); higher = less toxic
HepG2 [7] = assay: as above
U2OS [8] = assay: as above
Caco-2 [9] = assay: drug sensitivity score (DSS) for viability; higher = more toxic; extreme values may be limits of the assay
Calu-3 [10] = assay: as above
HepG2 [11] = assay: as above
U2OS [12] = assay: as above
Vero E6 [13] = assay: as above
Vero E6 [14] = assay: relative viability EC50 (midpoint between 100% and the lowest measured viability); higher = less toxic

SMILES	cell viability (Caco-2 [1]; 1 nM) [%]	cell viability (Caco-2 [1]; 10 nM) [%]	cell viability (Caco-2 [1]; 100 nM) [%]	cell viability (Caco-2 [1]; 1000 nM) [%]	cell viability (Caco-2 [1]; 10000 nM) [%]	cell viability (Calu-3 [2]; 1 nM) [%]	cell viability (Calu-3 [2]; 10 nM) [%]	cell viability (Calu-3 [2]; 100 nM) [%]	cell viability (Calu-3 [2]; 1000 nM) [%]	cell viability (Calu-3 [2]; 10000 nM) [%]	cell viability (HepG2 [3]; 1 nM) [%]	cell viability (HepG2 [3]; 10 nM) [%]	cell viability (HepG2 [3]; 100 nM) [%]	cell viability (HepG2 [3]; 1000 nM) [%]	cell viability (HepG2 [3]; 10000 nM) [%]	cell viability (U2OS [4]; 1 nM) [%]	cell viability (U2OS [4]; 10 nM) [%]	cell viability (U2OS [4]; 100 nM) [%]	cell viability (U2OS [4]; 1000 nM) [%]	cell viability (U2OS [4]; 10000 nM) [%]	cell viability (Vero E6 [5]; 1 nM) [%]	cell viability (Vero E6 [5]; 10 nM) [%]	cell viability (Vero E6 [5]; 100 nM) [%]	cell viability (Vero E6 [5]; 1000 nM) [%]	cell viability (Vero E6 [5]; 10000 nM) [%]	relative viability EC50 (Calu-3 [6]) [nM]	relative viability EC50 (HepG2 [7]) [nM]	relative viability EC50 (U2OS [8]) [nM]	drug sensitivity score (Caco-2 [9])	drug sensitivity score (Calu-3 [10])	drug sensitivity score (HepG2 [11])	drug sensitivity score (U2OS [12])	drug sensitivity score (Vero E6 [13])	relative viability EC50 (Vero E6 [14]) [nM]
C=CC(=O)Nc1cc2c(Nc3ccc(F)c(Cl)c3)ncnc2cc1OCCCN1CCOCC1 [canertinib]	91.7	90.3	81.6	81.5	69.5	100	89.8	70.2	41.2	30.1	105	97.6	105	95.5	90.5	97.1	98.5	93.1	96.1	89.9	98.5	93.1	86.3	65.6	51	132	> 10000	> 10000	5.4	14.8	0	0	7.8	
CN(C)CCCC1(c2ccc(F)cc2)OCc2cc(C#N)ccc21 (centres undefined) [citalopram]																														0	0	0	0	
C=C(c1ccccc1OCc1cccc(Cl)c1)n1ccnc1 [croconazole]	102	104	90.9	87.8	69.6	94.4	104	97.5	93.1	92.1	102	101	102	110	88	96.2	104	93.2	103	90	102	97	112	107	105	> 10000	> 10000	> 10000	2.5	0	0	0	0	> 10000
COc1ccc(-c2cc(=O)c3c(O)cc(O[C@@H]4O[C@H](CO[C@@H]5O[C@@H](C)[C@H](O)[C@@H](O)[C@H]5O)[C@@H](O)[C@H](O)[C@H]4O)cc3o2)cc1O [diosmin]																														0	0	0	0	
CN1CCN(c2ccc3nc(-c4c(N)c5c(F)cccc5[nH]c4=O)[nH]c3c2)CC1 [dovitinib]	98.4	101	87.5	85.7	61.8	93.8	97.7	98.6	93.7	81.9	115	96.8	102	60.8	28.8	99	99.5	93.5	97.8	42.3	97.4	96.5	99.6	63.2	42.1	> 10000	924	2880	3.6	0.9	8.7	3.4	7.5	794
